In patent US20080306002A1, “Combination Therapy for Preventing Angiogenesis” (The General Hospital Corporation, priority 2005, published 2008):

Tests used:
NF-κB = NF-κB reporter assay in DLD-1^HIF-kd cells in hypoxia; format: cell-based
Protocol: Cell lines. DLD-1 and Caco2 cells (ATCC) were stably transfected with HIF-1α siRNA constructs (pSuper.retro, OligoEngine), pSR.HIF-1α1470 or pSR.HIF-1α2192^10. […] Transient transfections were performed using Lipofectamine 2000 (Invitrogen).
(§1) Transfections and Reporter Assays. 0.1-0.2 μg reporter constructs were co-transfected with 2 ng of pRL-CMV (Promega) and luciferase activity was measured with the Dual Luciferase Reporter Assay System (Promega). pRL-null, a promoter-less Renilla construct, was used when cells were co-transfected with a K-ras expression vector^29. The relative luciferase activity was calculated as Firefly/Renilla luciferase activity. The level of ‘hypoxic induction’ was the ratio between the relative luciferase activity in hypoxia to that in normoxia.

IL-8 = IL-8 mRNA (qRT-PCR) in parental DLD-1 cells given t-butyl hydroperoxide; format: cell-based
Protocol: Real-time PCR assay. RNA was extracted using the RNeasy kit (Qiagen) and quantitative reverse-transcription PCR was performed using the SuperScript III platinum Two-Step qRT-PCR Kit (Invitrogen). Primer sequences for VEGF, IL-8, and 18S RNA are available upon request. A fluorogenic SYBR Green and MJ research detection system were used for real time quantification.
Hydrogen peroxide studies. Measurement of H2O2 was performed using the Amplex Red Hydrogen peroxide Assay Kit and the CM-H2DCFDA reagent (both Molecular Probe). Cells were exposed to hypoxia for 10 h, and then culture medium was switched to Krebs-Ringer phosphate buffer^30 containing 100 μM Amplex Red reagent and 0.2 U/mL HRP. After additional incubation in hypoxia for 1 h, fluorescence was measured in 96-well plates by Spectra MAX GEMINI XS microplate fluorometer (Molecure Devices). Cells were also incubated with 10 μM CM-H2DCFDA for 30 minutes in RPMI without phenol red. Fluorescence was measured in 96 well plates and values were normalized to cell number. 20 or 40 μM t-butyl hydroperoxide (t-BH, Sigma) was added to the culture media of DLD-1 cells every 30 minutes for 6 hours, and IL-8 mRNA levels were measured by qRT-PCR.

IL8 promoter [1] = experiment: IL-8 promoter reporter assay in Caco2 cells with KRAS^V12 and hypoxia; format: cell-based
Protocol: (§2) Cell lines. DLD-1 and Caco2 cells (ATCC) were stably transfected with HIF-1α siRNA constructs (pSuper.retro, OligoEngine), pSR.HIF-1α1470 or pSR.HIF-1α2192^10. […] In a pilot xenograft study, growth, microvascular density, VEGF and IL-8 levels were similar between a pSR.HIF-1α1470 clone and pSR.HIF-1α2192 clone. […] Transient transfections were performed using Lipofectamine 2000 (Invitrogen).
as §1

IL8 promoter [2] = experiment: IL-8 promoter reporter assay in DLD-1^HIF-kd cells in hypoxia; format: cell-based
Protocol: as §2, §1

VEGF = details: plus chemotherapy vs chemotherapy alone; cited from earlier work
Sequence of VEGF (P15692 207-311 limits assumed): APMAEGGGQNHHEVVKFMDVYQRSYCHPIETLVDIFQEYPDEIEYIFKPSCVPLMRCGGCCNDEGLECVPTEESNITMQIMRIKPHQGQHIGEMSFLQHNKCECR

With `C=C(C)[C@H]1Cc2c(ccc3c2O[C@@H]2COc4cc(OC)c(OC)cc4[C@@H]2C3=O)O1` [rotenone] the “induction of NF-κB promoter activity by hypoxia” value (NF-κB) was “strongly blocked”.
For `Cc1ccc(S(=O)(=O)/C=C/C#N)cc1` [BAY 11-7082], the “induction of IL-8 by t-butyl hydroperoxide” value (IL-8; 5 μM BAY 11-7082) was “inhibited”, the “induction of the IL8 promoter by hypoxia and KRAS^V12” value (IL8 promoter [1]) was “blocked” and the “hypoxic induction of the IL8 promoter” value (IL8 promoter [2]) was “significantly down-regulated”.
In the case of “Avastin: A monoclonal antibody to VEGF; recombinant humanized antibody (Genentech)”, the survival (VEGF) is listed as “greater” and the time to progression (VEGF) is listed as “highly significant longer”.
For `c1ccc2c(c1)[I+]c1ccccc1-2` [diphenylene iodonium], the “induction of NF-κB promoter activity by hypoxia” value (NF-κB) was “strongly blocked”.
In the case of `CC(C)(C)OO` [t-butyl hydroperoxide], the “production of IL-8” value (IL-8; exogenous administration) is reported as “stimulated”.
